From PubChem BioAssay AID1645868 (Buhrlage Lab, Dana-Farber Cancer Institute and Novartis …, 2021)
Activity calls are given as the source filed them.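 The calls were made as follows: active = maximal percent inhibition of the deubiquitinase OTUD3 of at least 30% across the tested doses; inactive = the rest.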

target: OTU domain-containing protein 3 (Homo sapiens) (UniProt Q5T2D3); experiment: Validation of screening hits, potency titration, in vitro enzymatic, OTU domain-containing protein 3 DUB inhibitors (AID 1645868); conditions: purified OTUD3, ubiquitin-rhodamine cleavage fluorescence, 2 h
Sequence (Q5T2D3 whole entry, looked up, the tested form may be a part): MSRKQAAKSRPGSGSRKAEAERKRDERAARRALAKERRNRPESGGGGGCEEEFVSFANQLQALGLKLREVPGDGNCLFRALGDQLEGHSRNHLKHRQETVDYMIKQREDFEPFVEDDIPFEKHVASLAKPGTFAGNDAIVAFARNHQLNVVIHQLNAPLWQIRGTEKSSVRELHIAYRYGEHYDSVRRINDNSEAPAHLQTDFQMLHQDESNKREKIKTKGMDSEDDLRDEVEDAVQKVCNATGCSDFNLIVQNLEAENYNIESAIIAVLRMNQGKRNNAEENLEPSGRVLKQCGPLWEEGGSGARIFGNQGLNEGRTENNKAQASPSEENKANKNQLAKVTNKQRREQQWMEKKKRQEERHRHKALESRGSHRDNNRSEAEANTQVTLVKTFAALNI

SMILES | IC50
COc1ccc(OC)c(NC(=O)C2Oc3ccccc3NC2=O)c1 (stereo not drawn) | > 50 µM (inactive)
CCOc1ccc(NC(=O)CSc2nc3n[nH]c(C)c3c(=N)n2-c2ccc(OC)cc2)cc1 | > 50 µM (inactive)
COc1cccc2cc(C(=O)Nc3ccc4c(c3)OCCO4)oc12 | > 50 µM (inactive)
Nc1ccc(F)c(NS(=O)(=O)c2ccccc2)c1 | > 50 µM (inactive)
O=C(COC(=O)c1ccc2ncsc2c1)Nc1ccccc1F | > 50 µM (inactive)
CCOc1ccccc1NC(=O)Cn1c(-c2ccc3c(c2)OCO3)cn(-c2ccc(OC)cc2)c1=O | > 50 µM (inactive)
Cc1ccccc1OCCC(=O)Nc1cccc(S(=O)(=O)Nc2ccccc2Cl)c1 | > 50 µM (inactive)
O=C(Nc1ccc(NS(=O)(=O)c2ccc3c4c(cccc24)CC3)cc1)c1ccccc1 | > 50 µM (inactive)
O=C(c1nnn(Cc2ccc(Cl)cc2)c1-n1cccc1)N1CCCC1 | > 50 µM (inactive)
COc1ccc(C)cc1NC(=O)Cc1csc(NC(=O)c2ccc(=O)[nH]c2)n1 | > 50 µM (inactive)
COc1cc(Cn2cnc3c([nH]c4ccc(Br)cc43)c2=O)cc(OC)c1 | 12.7 µM
COc1ccc(OCCn2c(C3CC(=O)N(c4cccc(C)c4)C3)nc3ccccc32)cc1 (stereo not drawn) | 2.42 µM
CN1C(=O)[C@]23CC4=CC=C[C@H](O)[C@H]4N2C(=O)[C@@]1(CO)SS3 | > 50 µM (inactive)
Cc1cccc(NC(=O)c2noc3c2CCc2sccc2-3)n1 | > 50 µM (inactive)
CC1Cc2ccccc2N1C(=O)Cn1c(=O)cc(O)c2ccccc21 (stereo not drawn) | > 50 µM (inactive)
CN(C(=O)CSc1nnc(-c2cc3ccccc3n2C)o1)c1ccccc1 | > 50 µM (inactive)
COc1ccccc1-c1nc2c3c(C)c(C)n(Cc4cccnc4)c3ncn2n1 | > 50 µM (inactive)
Cc1cc(C)cc(-n2cnc3cc(C(=O)NCCC4=CCCCC4)ccc32)c1 | > 50 µM (inactive)
O=C(c1cccnc1)N1CCC2(CC1)CC1(CO2)Nc2ccccc2-n2cccc21 (stereo not drawn) | > 50 µM (inactive)
O=C(NCc1ccncc1)C1CCN(c2cncnc2N2CCCCC2)CC1 | > 50 µM (inactive)
O=C(OCc1cccc(Cl)c1)c1ccc2ccccc2n1 | > 50 µM (inactive)
COC(=O)c1c(C)[nH]c(C(=O)C(C)OC(=O)CCC2CCCC2)c1C (stereo not drawn) | > 50 µM (inactive)
Cc1nc(NCc2ccccn2)c2cc(-c3ccccc3)sc2n1 | 45.3 µM
CCCCCCCc1cc(O)cc(O)c1 | > 50 µM (inactive)
CCN1C(=O)COc2ccc(NC(=O)c3ccc(OCc4nonc4C)cc3)cc21 | > 50 µM (inactive)
Cn1c2ccccc2c(=O)c2c(=O)n(Cc3ccccc3)c(-c3ccco3)nc21 | 1.55 µM
Cc1ccccc1C(=O)Nc1ccc(Cc2ccc(NC(=O)c3ccccc3C)c(O)c2)cc1O | > 50 µM (inactive)
COc1cccc(CNC(=O)C2=Cc3cccc(OC)c3OC2)c1 | > 50 µM (inactive)
